Data on 18 compounds can be found in US4332805A, “Decahydroquinolinol derivatives and methods of treating cardiac arrythmias or inducing local anaesthesia with them” (priority 1979, dated 1982).

Each structure is given as a SMILES string. Where a name gives a salt, the structure may show the parent alone. Read-outs that look alike come from different tables or passages of the source.

A short description of data set [1]: LAWSON test: protection against chloroform-induced ventricular fibrillation. Type of data set: in vivo, mice. Conditions: for ED50: Mus musculus, po. The procedure:
The arrhythmia was induced, in this test, by inhalation of chloroform until breathing stopped.
For each dose of the substance to be studied, batches of 10 female mice, each of about 20 g, were used. These mice had been fasting for 18 hours before the test. A batch of 10 animals was used as control group.
A dose of the compound to be studied was first administered by intragastric route except to the controls which only received the solvent used with the compound in question. Thirty minutes later, the animals were placed under a dome-shaped receptacle containing a high concentration of chloroform obtained by means of a strongly impregnated pad.
The animals were removed when totally asphyxiated (about 2 minutes later), the thorax was rapidly opened and the ventricular rhythm observed. The dose of the compound under study which protected 50% of the animals against ventricular fibrillation was then determined.
This protective dose is expressed as AD50 in mg/kg in the following Table. […]
Another comparative test was performed under the same conditions with
several compounds included within the scope of U.S. Pat. No. 3,882,129 at
the single dose of 100 mg/kg by intragastric route.
The following results were obtained which are expressed in percentage of protection obtained against the arrhythmic effect at the studied dose: […]

Data set [2] is described as follows: ventricular fibrillation provoked by chloroform or by calcium chloride. To be noted: in vivo.
Data set [3] in a line: arrhythmia-inducing and lethal dose in continuous venous perfusion. Type of data set: in vivo. Conditions: anaesthetized dog.
A short description of data set [4]: hypotensive activity / myocardial contractility. Conditions: in vivo.
Data set [5] is described as follows: motor activity (spontaneous motility) / sedation. It is filed as in vivo, mouse.
Data set [6] can be described thus: protection against toxic effects of epinephrine (antiadrenergic properties). It is filed as in vivo. To be noted: mice, 50 mg/kg intragastric, 30 minutes before 3 mg/kg i.v. epinephrine. The protocol:
Tests carried out with Compound A have shown that a dose of 50 mg/kg administered by intragastric route to mice 30 minutes before the intravenous injection of 3 mg/kg of epinephrine gave no protection against the toxic effects of this catecholamine.

Data set [7] is described as follows: local anaesthesia, CHANCE and LOBSTEIN technique (eyelid closure after touching cornea). Type of data set: in vivo, guinea-pig. Conditions: for local anaesthesia, % of animals / local anaesthesia, % of animals protected: guinea-pig eye; for local anaesthesia, % of animals: 0.1% solution, 5 minutes after administration; for local anaesthesia, % of animals protected: 0.5% solution. The procedure:
In this way, the percentage of locally anaesthetized animals were determined with respect to both the dose of compound given and the length of time elapsing after administration.

Data set [8] in a line: acute toxicity. To be noted: mouse, in vivo, mice.
Data set [9] in a line: acute toxicity. Conditions: rat, in vivo. The source says:
Acute toxicity tests were undertaken with Compound A on mice and rats.

Another data set can be described thus: convulsant dose. To be noted: mice per os; dog i.v. Type of data set: in vivo.
The nature of data set [10]: LAWSON test: protection against chloroform-induced ventricular fibrillation. It is filed as in vivo. Conditions: mice, 75 mg/kg intragastric.
[11] abbreviates: 0.5 h, female mice, intragastric, 30 minutes before chloroform, salts (hydrochloride), read-out: AD50 (dose protecting 50% of the animals against ventricular fibrillation).
[12] abbreviates: 30 minutes after administration.

As for `NC(=O)O[C@@H]1CCN(CCCOc2ccc(F)cc2)[C@H]2CCCC[C@H]12` (relative stereo) [Compound A, 4-Carbamoyloxy-1-[3-(4-fluoro-phenoxy)-propyl]-trans-decahydroquinoline (axial form)], the ED50 in data set [1] (setting [11]) came to 45 mg/kg; in data set [1] (mice, per os, read-out: Antiarrhythmic dose (LAWSON AD50 test)) it was 45 mg/kg. Further, in data set [2], the “protection against ventricular fibrillation provoked by chloroform or by calcium chloride” value was “provides protection against ventricular fibrillation provoked by chloroform or by calcium chloride”. This compound returned a lethal dose in [3] of 84.1 ± 7.1 mg/kg. Besides, in data set [3] (in vivo, iv), the TD50 turned out to be 80.6 ± 6 mg/kg. Moreover, the “hypotensive activity and depression of myocardial contractility” value in [4] is reported as “neither a hypotensive agent since its mechanism of action does not result from antiadrenergic properties nor is it a depressant of myocardial contractility”. In addition, the “sedative / antiadrenergic at antiarrhythmic doses” value in data set [5] (mice, 50 mg/kg intragastric) is on record as “neither sedative nor antiadrenergic at antiarrhythmic doses”. Further, the “depression of spontaneous motility” value in [5] (mice, 50 mg/kg intragastric, 30 minutes later) is “no depression of spontaneous motility”. The motor activity entry in data set [5] (mouse) was “does not modify motor activity”. Also, in data set [6], the “protection against the toxic effects of epinephrine” value is “no protection”. Further, the “local anaesthetic activity compared with lidocaine” value in [7] (guinea-pig) was “more active than lidocaine as a local anaesthetizing agent and exerts its effects over a longer period of time”. For the same compound, the “local anaesthesia, % of animals” value in data set [7] is given as 58%. The “local anaesthesia, % of animals protected” value in data set [7] (setting [12]) was 35%. Moreover, the LD50 is 750 mg/kg in the data set “acute toxicity [8]” (po, intragastric); 42.5 mg/kg in “acute toxicity [8]” (intravenous); 47 mg/kg in the data set “acute toxicity [9]” (iv); above 2000 mg/kg in “acute toxicity [9]” (po). Further, the “safety margin between effective antiarrhythmic dose and convulsant dose” value in “convulsant dose” was “good safety margin”. Also, the “% of protection” value in [10] (setting [12]) is 80%; in [10] (60 minutes after administration) it was 65%; in [10] (120 minutes after administration), 60%; in data set [10] (180 minutes after administration), 45%; in [10] (240 minutes after administration), 30%.

In the case of `NC(=O)O[C@@H]1CCN(CCOc2ccc(Br)cc2)[C@H]2CCCC[C@H]12` (relative stereo) [hydrogen, 2, O, 4-bromo-phenyl, axial, 1-[2-(4-Bromo-phenoxy)-ethyl]-4 carbamoyloxy-trans-decahydroquinoline hydrochloride (axial form)], the ED50 in [1] (setting [11]) was 90 mg/kg.

With `NC(=O)O[C@@H]1CCN(CCOc2ccc(F)cc2)[C@H]2CCCC[C@H]12` (relative stereo) [hydrogen, 2, O, 4-fluoro-phenyl, axial, 4-Carbamoyloxy-1-[2-(4-fluoro-phenoxy)-ethyl]-trans-decahydroquinoline hydrochloride (axial form)], the ED50 in data set [1] (setting [11]) is above 100 mg/kg.

On to `NC(=O)O[C@@H]1CCN(CCCOc2cccc3ccccc23)[C@H]2CCCC[C@H]12` (relative stereo) [hydrogen, 3, O, 1-naphthyl, axial, 4-Carbamoyloxy-1-[3-(1-naphthyloxy)-propyl]-trans-decahydroquinoline hydrochloride (axial form)], for which the ED50 in [1] (setting [11]) was above 100 mg/kg.

As for `NC(=O)O[C@@H]1CCN(CCCOc2ccc3ccccc3c2)[C@H]2CCCC[C@H]12` (relative stereo) [hydrogen, 3, O, 2-naphthyl, axial, 4-Carbamoyloxy-1-[3-(2-naphthyloxy)-propyl]-trans-decahydroquinoline hydrochloride (axial form)], the ED50 in [1] (setting [11]) was above 100 mg/kg.

With `CC(=O)c1ccc(OCCCN2CC[C@@H](OC(N)=O)[C@H]3CCCC[C@@H]32)cc1` (relative stereo) [hydrogen, 3, O, 4-acetyl-phenyl, axial, 1-[3-(4-Acetyl-phenoxy)-propyl]-4-carbamoyloxy-trans-decahydroquinoline hydrochloride (axial form)], the ED50 in data set [1] (setting [11]) is above 100 mg/kg.

Consider `NC(=O)O[C@@H]1CCN(CCCOc2ccc(Br)cc2)[C@H]2CCCC[C@H]12` (relative stereo) [hydrogen, 3, O, 4-bromo-phenyl, axial, 1-[3-(4-Bromo-phenoxy)-propyl]-4-carbamoyloxy-trans-decahydroquinoline hydrochloride (axial form)], for which, in [1] (setting [11]), the ED50 came to 65 mg/kg.

For the compound `NC(=O)O[C@@H]1CCN(CCCOc2ccc(Cl)cc2)[C@H]2CCCC[C@H]12` (relative stereo) [hydrogen, 3, O, 4-chloro-phenyl, axial, 4-Carbamoyloxy-1-[3-(4-chloro-phenoxy)-propyl]-trans-decahydroquinoline hydrochloride (axial form)], the ED50 in data set [1] (setting [11]) is above 100 mg/kg.

Turning to `N#Cc1ccc(OCCCN2CC[C@@H](OC(N)=O)[C@H]3CCCC[C@@H]32)cc1` (relative stereo) [hydrogen, 3, O, 4-cyano-phenyl, axial, 4-Carbamoyloxy-1-[3-(4-cyano-phenoxy)-propyl]-trans-decahydroquinoline hydrochloride (axial form)], the ED50 in data set [1] (setting [11]) came out at 30 mg/kg.

As for `COc1ccc(OCCCN2CC[C@@H](OC(N)=O)[C@H]3CCCC[C@@H]32)cc1` (relative stereo) [hydrogen, 3, O, 4-methoxy-phenyl, axial, 4-Carbamoyloxy-1-[3-(4-methoxy-phenoxy)-propyl]-trans-decahydroquinoline hydrochloride (axial form)], the ED50 in [1] (setting [11]) is above 100 mg/kg.

As for `Cc1ccc(OCCCN2CC[C@@H](OC(N)=O)[C@H]3CCCC[C@@H]32)cc1` (relative stereo) [hydrogen, 3, O, 4-methyl-phenyl, axial, 4-Carbamoyloxy-1-[3-(4-methyl-phenoxy)-propyl]-trans-decahydroquinoline hydrochloride (axial form)], in data set [1] (setting [11]), the ED50 is above 100 mg/kg.

As to `NC(=O)O[C@@H]1CCN(CCCOc2ccccc2)[C@H]2CCCC[C@H]12` (relative stereo) [hydrogen, 3, O, phenyl, axial, 4-Carbamoyloxy-1-(3-phenoxy-propyl)-trans-decahydroquinoline hydrochloride (axial form)], the ED50 in [1] (setting [11]) is above 100 mg/kg.

Turning to `NC(=O)O[C@@H]1CCN(CCCSc2ccc(F)cc2)[C@H]2CCCC[C@H]12` (relative stereo) [hydrogen, 3, S, 4-fluoro-phenyl, axial, 4-Carbamoyloxy-1-[3-(4-fluoro-phenylthio)-propyl]-trans-decahydroquinoline hydrochloride (axial form)], the ED50 in data set [1] (setting [11]) is above 100 mg/kg.

Take `CNC(=O)O[C@@H]1CCN(CCCOc2ccc(F)cc2)[C@H]2CCCC[C@H]12` (relative stereo) [methyl, 3, O, 4-fluoro-phenyl, axial, 1-[3-(4-Fluoro-phenoxy)-propyl]-4-(N-methylcarbamoyloxy)-trans-decahydroquinoline hydrochloride (axial form)]: in data set [1] (female mice, intragastric, 30 minutes before chloroform, salts (hydrochloride)), the “AD50 (dose protecting 50% of the animals against ventricular fibrillation)” value was found to be 55 mg/kg.

Turning to `CCCCNC(=O)O[C@@H]1CCN(CCCOc2ccc(F)cc2)[C@H]2CCCC[C@H]12` (relative stereo) [n-butyl, 3, O, 4-fluoro-phenyl, axial, 4-(N-n-butylcarbamoyloxy)-1-[3-(4-fluoro-phenoxy)-propyl]-trans-decahydroquinoline hydrochloride (axial form)], in [1] (setting [11]), the ED50 stood at 50 mg/kg.

Consider `CCCNC(=O)O[C@@H]1CCN(CCCOc2ccc(F)cc2)[C@H]2CCCC[C@H]12` (relative stereo) [n-propyl, 3, O, 4-fluoro-phenyl, axial, 1-[3-(4-Fluoro-phenoxy)-propyl]-4-(N-n-propyl-carbamoyloxy)-trans-decahydroquinoline hydrochloride (axial form)], for which, in [1] (setting [11]), the ED50 amounted to 80 mg/kg.

As for `O=C(Nc1ccccc1)O[C@@H]1CCN(CCCOc2ccc(F)cc2)[C@H]2CCCC[C@H]12` (relative stereo) [phenyl, 3, O, 4-fluoro-phenyl, axial, 1-[3-(4-Fluoro-phenoxy)-propyl]-4-(N-phenylcarbamoyloxy)-trans-decahydroquinoline hydrochloride (axial form)], in data set [1] (setting [11]), the ED50 is above 100 mg/kg.

Turning to `CCN(CC)CC(=O)Nc1c(C)cccc1C` [lidocaine, reference compound], the ED50 in data set [1] (0.5 h, read-out: AD50 (dose protecting 50% of the animals against ventricular fibrillation)) turned out to be 35 mg/kg. Also, in [7], the “local anaesthesia, % of animals” value came to 26%. Besides, in data set [7] (15 minutes after administration), the “local anaesthesia, % of animals protected” value turned out to be 35%.

As a reminder, the LD50 is the dose expected to kill half of the subjects tested. The low end stands for a more toxic substance, the high end for a less toxic substance.
